Here are results for twelve compounds from patent US20260216347A1, “Substituted Imidazo-Based Compounds as Ligand Directed Degraders of IRAK3” (Celgene Corporation, priority 2022, published 2026).

For assay [1], the target named is T1, IRAK3 (Homo sapiens, UniProt Q9Y616).
T1 construct: IRAK Endogenous HTRF Degradation Assay; endogenous in cells
T1 sequence (Q9Y616 1-596): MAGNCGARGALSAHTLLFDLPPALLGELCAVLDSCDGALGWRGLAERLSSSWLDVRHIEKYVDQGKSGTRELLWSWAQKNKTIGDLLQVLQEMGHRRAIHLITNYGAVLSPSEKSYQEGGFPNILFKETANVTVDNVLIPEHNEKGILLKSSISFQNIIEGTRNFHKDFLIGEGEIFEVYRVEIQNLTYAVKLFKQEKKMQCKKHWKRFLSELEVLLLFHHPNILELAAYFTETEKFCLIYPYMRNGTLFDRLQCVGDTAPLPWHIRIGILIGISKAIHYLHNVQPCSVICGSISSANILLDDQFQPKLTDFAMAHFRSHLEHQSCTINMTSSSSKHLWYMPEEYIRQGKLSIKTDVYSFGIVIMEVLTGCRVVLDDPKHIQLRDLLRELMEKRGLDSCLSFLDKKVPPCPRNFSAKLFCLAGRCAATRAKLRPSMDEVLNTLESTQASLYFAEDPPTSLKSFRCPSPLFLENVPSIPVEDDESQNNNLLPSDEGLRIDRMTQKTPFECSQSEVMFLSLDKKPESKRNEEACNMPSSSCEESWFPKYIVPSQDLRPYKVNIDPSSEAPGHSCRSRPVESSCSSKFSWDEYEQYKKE
Put plainly: IRAK endogenous HTRF degradation assay (Total-IRAK3 HTRF kit). It is filed as cell-based. Particulars: overnight incubation, lowest percentage of protein remaining. The gist of the method:
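Cells (~50 k) incubated overnight with 3-fold serial dilutions of compound, then lysed; total IRAK3 read by HTRF (665/615 nm ratio ×10,000), normalized to DMSO as 100%. EC50 from four-parameter logistic fit; Dmax = 100 − Ymin (lowest % protein remaining); DC50 = concentration giving 50% degradation.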
On the technique in general: In TR-FRET formats the signal depends on donor and acceptor labels being close together.

Assay [2] concerns the target T1, IRAK3. Put plainly: IRAK3 biochemical binding assay (LanthaScreen Eu Kinase Binding, TR-FRET). The method, boiled down: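 TR-FRET tracer-displacement binding with 10 nM IRAK3, 2 nM Eu-anti-GST antibody and 10 nM tracer in 50 mM HEPES pH 7.4, MgCl2, 1 mM EGTA, 0.01% Brij-35. Compounds in 3-fold dilutions, 1 h at room temperature. 665/615 nm ratio gave % inhibition; IC50 and Hill slope from dose-response fit.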

As usually defined, the IC50 is the concentration needed to halve the response being measured. Take `Cc1cccc(-c2cnc(Nc3cnn(C4CCN(CC(=O)N5CCN(c6ccc7c(c6)C(=O)N(C6CCC(=O)NC6=O)C7)CC5)CC4)c3)c3nccn23)c1` (stereo not drawn) [Compound 16, 3-(1-oxo-6-(4-(2-(4-(4-((5-(m-tolyl)imidazo[1,2-a]pyrazin-8-yl)amino)-1H-pyrazol-1-yl)piperidin-1-yl)acetyl)piperazin-1-yl)isoindolin-2-yl)piperidine-2,6-dione]: the “IRAK3 HTRF degradation Ymin” value at IRAK3 [1] amounted to 45%. At IRAK3 [2], this compound came in with an IC50 of 1.5 nM.

In the case of `O=C1CCC(c2ccc(N3CCN(CCN4CCC(n5cc(Nc6ncc(-c7ccccc7F)n7ccnc67)cn5)CC4)CC3)cc2)C(=O)N1` (stereo not drawn) [Compound 75, 3-(4-(4-(2-(4-(4-((5-(2-fluorophenyl)imidazo [1,2-a]pyrazin-8-yl)amino)-1H-pyrazol-1-yl)piperidin-1-yl)ethyl)piperazin-1-yl)phenyl) piperidine-2,6-dione], the “IRAK3 HTRF degradation Ymin” value at IRAK3 [1] is 9.8%. This compound also gave a half-inhibitory concentration (IC50) at IRAK3 [2] of 14 nM.

As to `Cc1cc(-c2cnc(Nc3cnn(C4CCN(CCN5CCN(c6ccc(C7CCC(=O)NC7=O)cc6)C[C@@H]5C)CC4)c3)c3nccn23)c(F)cc1F` (stereo partly drawn) [Compound 7, 3-(4-((S)-4-(2-(4-(4-((5-(2,4-difluoro-5-methylphenyl)imdazo [1,2-a]pyrazin-8-yl)amino)-1H-pyrazol-1-yl)piperidin-1-yl)ethyl)-3-methylpiperazin-1-yl)phenyl) piperidine-2,6-dione], the “IRAK3 HTRF degradation Ymin” value on IRAK3 [1] was 12%. The half-maximal inhibitory concentration (IC50) at IRAK3 [2] worked out at 1.5 nM.

For `Cc1cccc(-c2cnc(Nc3cnn(C4CCN(CCN5CCN(c6ccc7c(c6)C(=O)N(C6CCC(=O)NC6=O)C7=O)CC5)CC4)c3)c3nccn23)c1` (stereo not drawn) [Compound 2, 2-(2,6-dioxopiperidin-3-yl)-5-(4-(2-(4-(4-((5-(m-tolyl)imidazo[1,2-a]pyrazin-8-yl)amino)-1H-pyrazol-1-yl)piperidin-1-yl)ethyl)piperazin-1-yl)isoindoline-1,3-dione], on IRAK3 [1], the “IRAK3 HTRF degradation Ymin” value is reported as 18%. This compound yielded an IC50 at IRAK3 [2] of 4.2 nM.

Take `O=C1CCC(c2ccc(N3CCN(CCN4CCC(n5cc(Nc6ncc(-c7ccc(F)cc7)n7ccnc67)cn5)CC4)CC3)cc2)C(=O)N1` (stereo not drawn) [Compound 74, 3-(4-(4-(2-(4-(4-((5-(4-fluorophenyl)imidazo [1,2-a]pyrazin-8-yl)amino)-1H-pyrazol-1-yl)piperidin-1-yl)ethyl)piperazin-1-yl)phenyl) piperidine-2,6-dione]: the “IRAK3 HTRF degradation Ymin” value on IRAK3 [1] was determined as 9.8%. On IRAK3 [2], the IC50 was found to be 5.6 nM.

As for `Cc1cc(-c2cnc(Nc3cnn([C@H]4CC[C@H](CCN5CCN(c6ccc([C@@]7(C)CCC(=O)NC7=O)cc6)CC5)CC4)c3)c3nccn23)c(F)cc1F` [Compound 81, (R)-3-(4-(4-(2-((trans)-4-(4-((5-(2,4-difluoro-5-methylphenyl)imidazo[1,2-a]pyrazin-8-yl)amino)-1H-pyrazol-1-yl)cyclohexyl)ethyl)piperazin-1-yl)phenyl)-3-methylpiperidine-2,6-dione], the “IRAK3 HTRF degradation Ymin” value at IRAK3 [1] was determined as 7.8%. The IC50 on IRAK3 [2] came to 10 nM.

As to `Cc1cc(-c2cnc(Nc3cnn(C4CCN(CCN5CCN(c6ccc([C@]7(C)CCC(=O)NC7=O)cc6)CC5)CC4)c3)c3nccn23)c(F)cc1F` [Compound 76, (S)-3-(4-(4-(2-(4-(4-((5-(2,4-difluoro-5-methylphenyl)imdazo [1,2-a]pyrazin-8-yl)amino)-1H-pyrazol-1-yl)piperidin-1-yl)ethyl)piperazin-1-yl)phenyl)-3-methylpiperidine-2,6-dione], at IRAK3 [1], the “IRAK3 HTRF degradation Ymin” value came out at 64%. On IRAK3 [2], the IC50 was found to be 1.7 nM.

With `Cc1cccc(-c2cnc(Nc3cnn(C4CCN(CCCN5CCN(c6ccc(C7CCC(=O)NC7=O)cc6)CC5)CC4)c3)c3nccn23)c1` (stereo not drawn) [Compound 4, 3-(4-(4-(3-(4-(4-((5-(m-tolyl)imidazo[1,2-a]pyrazin-8-yl)amino)-1H-pyrazol-1-yl)piperidin-1-yl)propyl)piperazin-1-yl)phenyl) piperidine-2,6-dione], on IRAK3 [1], the “IRAK3 HTRF degradation Ymin” value is 17%. On IRAK3 [2], the IC50 worked out at 2.3 nM.

As to `Cc1cc(-c2ccc(Nc3cnn(C4CCN(CCN5CCN(c6ccc(C7CCC(=O)NC7=O)cc6)CC5)CC4)c3)c3nccn23)c(F)cc1F` (stereo not drawn) [Compound 12, 3-(4-(4-(2-(4-(4-((5-(2,4-difluoro-5-methylphenyl)imdazo [1,2-a]pyridin-8-yl)amino)-1H-pyrazol-1-yl)piperidin-1-yl)ethyl)piperazin-1-yl)phenyl) piperidine-2,6-dione], the “IRAK3 HTRF degradation Ymin” value on IRAK3 [1] was 13%. Further, at IRAK3 [2], the 50% inhibitory concentration (IC50) is 2 nM.

As for `Cc1cc(-c2cnc(Nc3cnn([C@H]4CCN(CCN5CCN(c6ccc(C7CCC(=O)NC7=O)cc6)CC5)C[C@@H]4F)c3)c3nccn23)c(F)cc1F` (stereo partly drawn) [Compound 72, 3-(4-(4-(2-((3S,4S)-4-(4-((5-(2,4-difluoro-5-methylphenyl)imdazo [1,2-a]pyrazin-8-yl)amino)-1H-pyrazol-1-yl)-3-fluoropiperidin-1-yl)ethyl)piperazin-1-yl)phenyl) piperidine-2,6-dione], on IRAK3 [1], the “IRAK3 HTRF degradation Ymin” value was determined as 8.3%. This compound yielded a half-maximal inhibitory concentration (IC50) on IRAK3 [2] of 1.2 nM.

With `Cc1cc(-c2cnc(Nc3cnn(C4CCN(CCN5CCN(c6cccc(C7CCC(=O)NC7=O)c6)CC5)CC4)c3)c3nccn23)c(F)cc1F` (stereo not drawn) [Compound 31, 3-(3-(4-(2-(4-(4-((5-(2,4-difluoro-5-methylphenyl)imdazo [1,2-a]pyrazin-8-yl)amino)-1H-pyrazol-1-yl)piperidin-1-yl)ethyl)piperazin-1-yl)phenyl) piperidine-2,6-dione], at IRAK3 [1], the “IRAK3 HTRF degradation Ymin” value was 40%. Moreover, the IC50 at IRAK3 [2] stood at 6.1 nM.

`Cc1cc(-c2cnc(Nc3cnn([C@H]4CC[C@@H](CCN5CCN(c6ccc(C7CCC(=O)NC7=O)cc6)CC5)CC4)c3)c3nccn23)c(F)cc1F` (stereo partly drawn) [Compound 14, 3-(4-(4-(2-((cis)-4-(4-((5-(2,4-difluoro-5-methylphenyl)imidazo[1,2-a]pyrazin-8-yl)amino)-1H-pyrazol-1-yl)cyclohexyl)ethyl)piperazin-1-yl)phenyl) piperidine-2,6-dione]: at IRAK3 [1], the “IRAK3 HTRF degradation Ymin” value turned out to be 13%. This compound also returned a 50% inhibitory concentration (IC50) on IRAK3 [2] of 4.3 nM.
